Laboratory results: US20180092393A1, “IRON NICOTINATE COMPOSITION” (NESTEC S.A., priority 2015, published 2018)

Conditions: colour difference vs product with no iron salts; approximately 2.1 mg iron per 100 g; flash pasteurized at 3.05° C. for 2 minutes; 47.3% banana puree
Experimental: Colour measurements were performed in 1×1 cm polystyrene cuvettes using an X-Rite ColorEye 7000A colorimeter. The colorimeter was set up with a D65 light source, 3.0 degree observer angle and with specular component included. The colour difference between the product with no iron salts and the iron fortified product was measured for each iron salt and expressed as ΔEab* using the CIELAB colour scale.

O=S(=O)([O-])[O-].[Fe+2] [Ferrous sulphate]
ΔEab*: 3.26
